Residues, ends and D or L forms follow the SMILES beside them.
Key:
[1] = Forward looking example: Metabolic Syndrome patient with chronic environmental antigen stimulation; assay type: in vivo, human; settings: sublingual once every two weeks, with diet, exercise, ACE Inhibitor, Fluconazole; over a year
Text: The further application of the instant invention is illustrated by the following forward looking examples.
• A young person presents to their physician, on annual physical examination, with a weight gain of 50 pounds, is found to have high blood pressure, and reports vaginal pruritis. Over the past few years, they have lived in an area of major traffic congestion (near an oil refinery). The physician does a physical examination and discovers unusual black pigmented areas in their neck creases (acanthosis nigricans) and orders laboratory tests, including fasting and 2-hour blood glucose, serum triglycerides, serum insulin, a cholesterol profile, C-Reactive Protein, serum fibrinogen, and a vaginal smear for candidiasis. • They are found to have impaired glucose tolerance, elevated serum triglycerides, low HDL and high […] and high C-Reactive Protein and fibrinogen levels. Their vaginal smear is positive for candida albicans. • The physician knows that they are seeing a case of the Metabolic Syndrome which progresses to Diabetes Mellitus and Coronary Heart Disease. They prescribe a weight reduction diabetic diet, physical exercise, an ACE Inhibitor, and Fluconazole. […] They continue their diet and physical exercise and loses weight. They require less high blood pressure medication. The physician continues to monitor their cell-mediated immune function, blood glucose levels, lipid profile, and measures of inflammation, and adjusts their medications appropriately. • The patient continues to lose weight to reach their target weight, blood pressure is controlled, blood glucose is normalized, and their risk of diabetes mellitus and coronary heart disease is reduced.

[2] = FEBS LET. 383:18 (1996); cited from earlier work

| SMILES | Blood glucose [1] | C-Reactive Protein [1] | Cholesterol level [1] | Immunological activity in vitro [2] |
| --- | --- | --- | --- | --- |
| N[C@@H](Cc1ccc(O)cc1)C(=O)NCC(=O)O [YG, L-tyrosylglycine] | changes toward normal | reduced | reduced | immunologically active |
| N[C@@H](Cc1ccc(O)cc1)C(=O)NCC(=O)NCC(=O)O [YGG, L-tyrosylglycylglycine] (H-Tyr-Gly-Gly-OH) |  |  |  | immunologically active |

From patent US7632818B2, “Method for treating conditions associated with the Metabolic Syndrome (Syndrome X)” (priority 2003, dated 2009)
